According to patent US11180504B2 (ORCHID PHARMA LTD., priority 2016, dated 2021):
Converted amounts (≈) assume the structure as drawn. Where two headings read alike, the source gives them in different places.

Tests used:
[1] = system: methicillin-sensitive Staphylococcus aureus; test: MIC by broth micro-dilution (CLSI), methicillin-sensitive S. aureus; format: cell-based; details: MSSA S. aureus ATCC29213
[2] = system: carbapenemase producing K. pneumoniae; test: MIC by broth micro-dilution (CLSI), carbapenemase producing K. pneumoniae; format: cell-based, Klebsiella pneumoniae
[3] = system: carbapenem sensitive Pseudomonas aeruginosa; test: MIC by broth micro-dilution (CLSI), carbapenem sensitive P. aeruginosa; format: cell-based
[4] = system: carbapenem sensitive Escherichia coli; test: MIC by broth micro-dilution (CLSI), carbapenem sensitive E. coli; format: cell-based
[5] = Staphylococcus aureus, ATCC 29213 / MSSA, read-out: MIC
[6] = Klebsiella pneumoniae, ATCCBAA1705, KPC-2 K. pneumoniae ATCC BAA-1705, read-out: MIC
[7] = Pseudomonas aeruginosa, ATCC27853, Meropenem susceptible P. aeruginosa ATCC27853, read-out: MIC
[8] = Escherichia coli, ATCC25922, ESBL −ve E. coli ATCC25922, read-out: MIC

SMILES | MIC [1, 5] | MIC [2, 6] | MIC [3, 7] | MIC [4, 8] | MIC [1] | MIC ([2]; KPC-2 K. pneumoniae ATCC BAA-1705) | MIC ([3]; Meropenem susceptible P. aeruginosa ATCC27853) | MIC ([4]; ESBL −ve E. coli ATCC25922) | MIC ([2]; Klebsiella pneumoniae, ATCCBAA1705)
C[C@@H](NC(=O)Cn1cnnn1)[C@H]1C(=O)N2C(C(=O)O)=C(S[C@@H]3CN[C@H](C(=O)N(C)C)C3)[C@H](C)[C@H]12 [Example 283] | 16 µg/mL (≈ 32.5 µM) | 0.5 µg/mL (≈ 1.02 µM) | 8 µg/mL (≈ 16.2 µM) | 0.25 µg/mL (≈ 0.508 µM) | – | – | – | – | –
CNCC(=O)N[C@H](C)[C@H]1C(=O)N2C(C(=O)O)=C(S[C@@H]3CN[C@H](CNS(=O)(=O)N4CCNCC4)C3)[C@H](C)[C@H]12 [Example 252] | 16 µg/mL (≈ 28.6 µM) | 4 µg/mL (≈ 7.15 µM) | 16 µg/mL (≈ 28.6 µM) | 2 µg/mL (≈ 3.57 µM) | – | – | – | – | –
C[C@@H](NC(=O)Cn1cnnn1)[C@H]1C(=O)N2C(C(=O)O)=C(S[C@@H]3CN[C@H](C(=O)N4CCC(CO)CC4)C3)[C@H](C)[C@H]12 [Example 423, (4R,5S,6R)-6-((R)-1-(2-(1H-tetrazol-1-yl)acetamido)ethyl)-3-((3S,5S)-5-(4-(hydroxymethyl)piperidine-1-carbonyl)pyrrolidin-3-ylthio)-4-methyl-7-oxo-1-azabicyclo[3.2.0]hept-2-ene-2-carboxylic acid] | 8 µg/mL (≈ 14.2 µM) | 2 µg/mL (≈ 3.55 µM) | 32 µg/mL (≈ 56.9 µM) | 0.5 µg/mL (≈ 0.889 µM) | – | – | – | – | –
CNCC(=O)N[C@H](C)[C@H]1C(=O)N2C(C(=O)O)=C(S[C@@H]3CN[C@H](C(=O)N4C[C@H](N)C[C@H]4c4ccccc4)C3)[C@H](C)[C@H]12 [Example 288] | 128 µg/mL (≈ 224 µM) | 16 µg/mL (≈ 28 µM) | > 128 µg/mL | 4 µg/mL (≈ 7.01 µM) | – | – | – | – | –
C[C@@H](NC(=O)Cn1cncn1)[C@H]1C(=O)N2C(C(=O)O)=C(S[C@@H]3CN[C@H](C(=O)N4CCNCC4)C3)[C@H](C)[C@H]12 [Example 314, (4R,5S,6R)-6-((R) - 1-(2-(1H-tetrazol-1-yl)acetamido)ethyl)-4-methyl-7-oxo-3-((3S,5S)-5-(piperazine-1-carbonyl)pyrrolidin-3-ylthio) - 1-azabicyclo[3.2.0]hept-2-ene-2-] | 4 µg/mL (≈ 7.51 µM) | 2 µg/mL (≈ 3.75 µM) | 4 µg/mL (≈ 7.51 µM) | 0.25 µg/mL (≈ 0.469 µM) | – | – | – | – | –
C[C@@H](NC(=O)Cn1cnnn1)[C@H]1C(=O)N2C(C(=O)O)=C(S[C@@H]3CN[C@H](C(=O)N4CCC5(CC6CCC(C5)N6)C4)C3)[C@H](C)[C@H]12 (stereo partly drawn) [Example 397, (4R,5S,6R)-6-((R)-1-(2-(1H-tetrazol-1-yl)acetamido)ethyl)-3-((3S,5S)-5-(8-azaspiro[bicyclo[3.2.1]octane-3,3′-pyrrolidine]-1′-ylcarbonyl)pyrrolidin-3-ylthio)-4-methyl-7-oxo-1-azabicyclo[3.2.0]hept-2-ene-2-carboxylic acid] | 2 µg/mL (≈ 3.26 µM) | – | 2 µg/mL (≈ 3.26 µM) | 0.25 µg/mL (≈ 0.407 µM) | – | – | – | – | 1 µg/mL (≈ 1.63 µM)
C[C@@H](NC(=O)C(F)F)[C@H]1C(=O)N2C(C(=O)O)=C(S[C@@H]3CN[C@H](C(=O)N4CC[C@H](NCc5cc(=O)c(O)cn5C)C4)C3)[C@H](C)[C@H]12 [Example 246] | 32 µg/mL (≈ 50.1 µM) | 128 µg/mL (≈ 200 µM) | > 128 µg/mL | 8 µg/mL (≈ 12.5 µM) | – | – | – | – | –
C[C@@H](NC(=O)Cn1cnnn1)[C@H]1C(=O)N2C(C(=O)O)=C(S[C@@H]3CN[C@H](C(=O)N4CCN(C(=O)[C@@H](N)CO)CC4)C3)[C@H](C)[C@H]12 [Example 420, (4R,5S,6R)-6-((R)-1-(2-(1H-tetrazol-1-yl)acetamido)ethyl)-3-((3S,5S)-5-(4-((S)-2-amino-3-hydroxypropanoyl)piperazine-1-carbonyl)pyrrolidin-3-ylthio)-4-methyl-7-oxo-1-azabicyclo[3.2.0]hept-2-ene-2-carboxylic acid] | 4 µg/mL (≈ 6.44 µM) | 1 µg/mL (≈ 1.61 µM) | 2 µg/mL (≈ 3.22 µM) | 0.25 µg/mL (≈ 0.403 µM) | – | – | – | – | –
C[C@@H](NC(=O)Cn1nnnc1C(F)(F)F)[C@H]1C(=O)N2C(C(=O)O)=C(S[C@@H]3CN[C@H](C(=O)N(C)C)C3)[C@H](C)[C@H]12 [Example 348, (4R,5S,6R)-3-((3S,5S)-5-(dimethylcarbamoyl)pyrrolidin-3-ylthio)-4-methyl-7-oxo-6-((R)-1-(2-(5-(trifluoromethyl)-1H-tetrazol-1-yl)acetamido)ethyl)-1-azabicyclo[3.2.0]hept-2-ene-2-carboxylic acid] | 8 µg/mL (≈ 14.3 µM) | 16 µg/mL (≈ 28.5 µM) | > 128 µg/mL | 1 µg/mL (≈ 1.78 µM) | – | – | – | – | –
C[C@@H](NC(=O)Cn1cnnn1)[C@H]1C(=O)N2C(C(=O)O)=C(S[C@@H]3CN[C@H](C(=O)N4CC5CCNCC5(CO)C4)C3)[C@H](C)[C@H]12 (single isomer, unassigned) [Example 542] | – | – | – | – | 4 µg/mL (≈ 6.63 µM) | 2 µg/mL (≈ 3.31 µM) | 2 µg/mL (≈ 3.31 µM) | 0.25 µg/mL (≈ 0.414 µM) | –
C[C@@H](NC(=O)Cn1cnnn1)[C@H]1C(=O)N2C(C(=O)O)=C(S[C@@H]3CN[C@H](C(=O)N4CC5C(N)C5C4)C3)[C@H](C)[C@H]12 (stereo partly drawn) [Example 333, (4R,5S,6R)-6-((R) - 1-(2-(1H-tetrazol-1-yl)acetamido)ethyl)-3-((3S,5S)-5-(6-amino-3-azabicyclo[3.1.0]hexane-3-carbonyl)pyrrolidin-3-ylthin)-4-methyl-7-oxo-1-azabicyclo[3.2.0]hept-2-ene-2-carboxylic acid] | 8 µg/mL (≈ 14.7 µM) | 4 µg/mL (≈ 7.33 µM) | 4 µg/mL (≈ 7.33 µM) | 0.5 µg/mL (≈ 0.916 µM) | – | – | – | – | –
C[C@@H](NC(=O)Cn1cnnn1)[C@H]1C(=O)N2C(C(=O)O)=C(S[C@@H]3CN[C@H](C(=O)N4CC(N)C(F)C4)C3)[C@H](C)[C@H]12 (single isomer, unassigned) [Example 478] | 8 µg/mL (≈ 14.5 µM) | 1 µg/mL (≈ 1.81 µM) | 8 µg/mL (≈ 14.5 µM) | 0.125 µg/mL (≈ 0.227 µM) | – | – | – | – | –

The remaining molecules from weak to strong by MIC [1, 5], led by results:

MIC [1, 5] | MIC [2, 6] | MIC [3, 7] | MIC [4, 8] | MIC [1] | MIC ([2]; KPC-2 K. pneumoniae ATCC BAA-1705) | MIC ([3]; Meropenem susceptible P. aeruginosa ATCC27853) | MIC ([4]; ESBL −ve E. coli ATCC25922) | SMILES | MIC ([2]; Klebsiella pneumoniae, ATCCBAA1705)
4 µg/mL (≈ 6.49 µM) | 2 µg/mL (≈ 3.24 µM) | 4 µg/mL (≈ 6.49 µM) | 1 µg/mL (≈ 1.62 µM) | – | – | – | – | C[C@@H](NC(=O)Cn1cnnn1)[C@H]1C(=O)N2C(C(=O)O)=C(S[C@@H]3CN[C@H](C(=O)N4CCC(N5CC[C@@H](N)C5)CC4)C3)[C@H](C)[C@H]12 [Example 409, (4R,5S,6R)-6-((R)-1-(2-(1H-tetrazol-1-yl)acetamido)ethyl)-3-((3S,5S)-5-(4-((R)-3-aminopyrrolidin-1-yl)piperidine-1-carbonyl)pyrrolidin-3-ylthio)-4-methyl-7-oxo-1-azabicyclo[3.2.0]hept-2-ene-2-carboxylic acid] | –
4 µg/mL (≈ 6.79 µM) | 2 µg/mL (≈ 3.4 µM) | 2 µg/mL (≈ 3.4 µM) | 1 µg/mL (≈ 1.7 µM) | – | – | – | – | C[C@@H](NC(=O)Cn1cnnn1)[C@H]1C(=O)N2C(C(=O)O)=C(S[C@@H]3CN[C@H](C(=O)N4CCN(C5CNC5)CC4)C3)[C@H](C)[C@H]12 [Example 408, (4R,5S,6R)-6-((R)-1-(2-(1H-tetrazol-1-yl)acetamido)ethyl)-3-((3S,5S)-5-(4-(azetidin-3-yl)piperazine-1-carbonyl)pyrrolidin-3-ylthio)-4-methyl-7-oxo-1-azabicyclo[3.2.0]hept-2-ene-2-carboxylic acid] | –
4 µg/mL (≈ 6.92 µM) | 2 µg/mL (≈ 3.46 µM) | 2 µg/mL (≈ 3.46 µM) | 0.5 µg/mL (≈ 0.866 µM) | – | – | – | – | C[C@@H](NC(=O)Cn1cnnn1)[C@H]1C(=O)N2C(C(=O)O)=C(S[C@@H]3CN[C@H](C(=O)N4CCC(N)(CO)CC4)C3)[C@H](C)[C@H]12 [Example 475, (4R,5S,6R)-6-((R)-1-(2-(1H-tetrazol-1-yl)acetamido)ethyl)-3-((3S,5S)-5-(4-amino-4-(hydroxymethyl)piperidine-1-carbonyl)pyrrolidin-3-ylthio)-4-methyl-7-oxo-1-azabicyclo[3.2.0]hept-2-ene-2-carboxylic acid] | –
4 µg/mL (≈ 6.79 µM) | 16 µg/mL (≈ 27.2 µM) | 128 µg/mL (≈ 217 µM) | 1 µg/mL (≈ 1.7 µM) | – | – | – | – | C[C@@H](NC(=O)CN1CCn2nnnc2C1)[C@H]1C(=O)N2C(C(=O)O)=C(S[C@@H]3CN[C@H](C(=O)N4CC[C@@H](N)C4)C3)[C@H](C)[C@H]12 [Example 390, (4R,5S,6R)-3-((3S,5S)-5-((R)-3-aminopyrrolidine-1-carbonyl)pyrrolidin-3-ylthio)-6-((R)-1-(2-(5,6-dihydrotetrazolo[1,5-a]pyrazin-7(8H)-yl)acetamido)ethyl)-4-methyl-7-oxo-1-azabicyclo[3.2.0]hept-2-ene-2-carboxylic acid] | –
4 µg/mL (≈ 10.1 µM) | 1 µg/mL (≈ 2.53 µM) | 16 µg/mL (≈ 40.5 µM) | 2 µg/mL (≈ 5.06 µM) | – | – | – | – | C[C@@H](NC(=O)Cn1cnnn1)[C@H]1C(=O)N2C(C(=O)O)=C(SCCN)[C@H](C)[C@H]12 [Example 415, (4R,5S,6R)-6-((R)-1-(2-(1H-tetrazol-1-yl)acetamido)ethyl)-3-(2-aminoethylthio)-4-methyl-7-oxo-1-azabicyclo[3.2.0]hept-2-ene-2-carboxylic acid] | –
2 µg/mL (≈ 3.77 µM) | 16 µg/mL (≈ 30.2 µM) | > 128 µg/mL | 4 µg/mL (≈ 7.54 µM) | – | – | – | – | C[C@@H](NC(=O)C(F)F)[C@H]1C(=O)N2C(C(=O)O)=C(S[C@@H]3CN[C@H](CNC(=O)[C@@H]4C[C@H](N)CN4)C3)[C@H](C)[C@H]12 [Example 259] | –
1 µg/mL (≈ 1.71 µM) | 0.5 µg/mL (≈ 0.854 µM) | 1 µg/mL (≈ 1.71 µM) | 0.06 µg/mL (≈ 0.102 µM) | – | – | – | – | C[C@@H](NC(=O)Cn1cnnn1)[C@H]1C(=O)N2C(C(=O)O)=C(S[C@@H]3CN[C@H](C(=O)N4C[C@@]56CNCC5C[C@@H]4C6)C3)[C@H](C)[C@H]12 (stereo partly drawn) [Example 571, (4R,5S,6R)-6-((R)-1-(2-(1H-tetrazol-1-yl)acetamido)ethyl)-3-((3S,5S)-5-((1R,7R)-3,8-Diaza-tricyclo[5.2.1.01,5]decane-8-carbonyl)-pyrrolidin-3-ylthio)-4-methyl-7-oxo-1-azabicyclo[3.2.0]hept-2-ene-2-carboxylic acid] | –
0.5 µg/mL (≈ 1 µM) | 2 µg/mL (≈ 4.02 µM) | > 128 µg/mL | 1 µg/mL (≈ 2.01 µM) | – | – | – | – | C[C@@H](NC(=O)C(F)F)[C@H]1C(=O)N2C(C(=O)O)=C(SC[C@@H]3C[C@H](NS(N)(=O)=O)CN3)[C@H](C)[C@H]12 [Example 267] | –
